Source: publication PMC6403188, “Species-Specific Structural Requirements of Alpha-Branched Trehalose Diester Mincle Agonists” (Frontiers in Immunology, 2019)

Tested on: BALB/c mice
Test: Splenocyte restimulation with M72 and intracellular cytokine staining of CD4/CD8 T cells after vaccination
Assay type: in vivo, mouse
Details: 0.125 μg antigen plus 2, 10, or 50 nmol liposomal adjuvant, i.m. two times, spleens 5 days post-secondary
Procedure: Animal studies were carried out in an OLAW and AAALAC accredited vivarium in accordance with University of Montana's IACUC guidelines for the care and use of laboratory animals. Groups of 10–14 BALB/c mice were vaccinated intramuscularly with 0.125 μg M72 antigen and indicated concentrations of various CLR adjuvant candidates (liposomal formulations) in 50 μl total volume per injection. After 14 days, blood and serum samples were collected and a secondary vaccination was administered. At day 19 (5 days post-secondary vaccination), 3–6 mice per group were euthanized and spleens were harvested the assessment of cell-mediated immunity. At day 28 (14 days post booster vaccination) the remaining 7 mice in each group were euthanized and blood was collected for the measurement of M72 specific humoral immunity.
Spleens were harvested from vaccinated mice 5 days after secondary injections and splenocytes were harvested by disruption of the spleens through a 100 μm filter. Red blood cells were lysed by incubation with red blood cell lysis buffer (Sigma) for 5 min followed by washing in 1x PBS. Cells were plated in a 96 well plate at 5 × 10^6 cells/well in 200 μL complete RPMI1640 media. Cells were incubated with 1 μg/mL M72 antigen for […] at 37°C. After 7 h, GolgiPlug (Brefeldin A, BD Biosciences) was added to each well and incubated at 37°C for a further 12 h. Following incubation, cells were stained with the cell surface antibodies against CD3e PerCP-Cy5.5 (Tonbo Biosciences, 145-2C11), CD4a APC-Cy7 (Tonbo Biosciences, RM4-5) and CD8a PE-Cy7 (Tonbo Biosciences, 53–6.7) and viability stain (Ghost 510, Tonbo Biosciences). Cells were treated with cytofix/cytoperm (BD) and stained with anti-IFNγ PE-CF594 (BD, XMG1.2), anti-IL2 FITC (Biolegend, JES6-5H4), anti-IL-5 PE (BD, TRFK5), anti-IL17A BV421 (Biolegend, TC11-18H10.1), and anti-TNFα APC (Invitrogen, MP6-XT22). Data was collected using an LSRII flow cytometer (BD) and analyzed using FlowJo 10.0 software (TreeStar). Splenocytes were gated on live, single cells, then CD3+ to identify all T cells, then gated as CD4+CD8- to identify CD4 T cells or CD4-CD8+ to identify CD8 T cells. Gates for intracellular cytokine positive CD4 or CD8 T cells are set based on re-stimulation of naïve splenocytes. Gating strategies for the detection of antigen specific CD4+ and CD8+ T cells are outlined in Supplemental Figure 3.
Figure 7 Induction of IL-17 producing CD4+ and CD8+ T cells from an αTDE adjuvanted M72 vaccine. BALB/c mice, 10 per group, were immunized two times i.m. with 0.125 μg antigen plus 2, 10, or 50 nmol of the indicated adjuvant. Spleens were harvested from a subset of 3 mice per group at 5 days post-secondary vaccination. Splenocytes were restimulated with 1 μg/mL whole antigen and transport inhibitors followed by surface staining for CD3, CD4, and CD8 and then intracellular cytokine staining. Data represent percentage of live, CD3^+/CD4^+, left, or CD3^+/CD8^+, right, cells that are also positive for IL-17A upon stimulation.
Figure 8 B16 liposomes biases a Th17/Th2 adaptive immune response. BALB/c mice, 14 per group, were immunized twice, 14 days apart, i.m with 0.1, 1, or 10 μg of M72 antigen plus either blank DDA:DSPC liposome or B16 loaded (10 nmol final dose) liposome. (A,B) M72-specific serum antibody titers at 14 days post-secondary vaccination. (C–F) Spleens were harvested from mice at 5 days post-secondary vaccination and restimulated with 1 μg/mL whole antigen and transport inhibitors followed by surface staining for CD3, CD4, and CD8 and then intracellular cytokine staining. (C) Percent of live, CD3^+/CD4^+/IL5+ cells, (D) Percent of live, CD3^+/CD8^+/IFNγ+ cells, (E) Percent of live, CD3^+/CD4^+/IL17+ cells, and (F) Percent of live, CD3^+/CD8^+/IL17+ cells. ^*p < 0.05, ^**p < 0.01, ^****p < 0.001.
Supplemental Figure 10. Production of IFNɣ, IL-2, IL-5 or TNFα by CD4 or CD8 T cells in response to various CLR compounds. […]

## CCCCCCCCCCCCCCCCCCCCCC(=O)OC[C@H]1O[C@H](O[C@H]2O[C@H](COC(=O)CCCCCCCCCCCCCCCCCCCCC)[C@@H](O)[C@H](O)[C@H]2O)[C@H](O)[C@@H](O)[C@@H]1O [TDB, trehalose dibehenate, reference compound]
  IL-17+ CD4+ and CD8+ T cells (Th17 response) after M72 re-stimulation: able to boost Th17
